Like-named read-outs stand apart in the source and are kept apart here.
How the values were obtained:
AE1 [1] = target: T1, AE1 (Homo sapiens, UniProt P02730); assay: Cellular bicarbonate uptake assay; type: cell-based
T1 sequence (P02730 1-911): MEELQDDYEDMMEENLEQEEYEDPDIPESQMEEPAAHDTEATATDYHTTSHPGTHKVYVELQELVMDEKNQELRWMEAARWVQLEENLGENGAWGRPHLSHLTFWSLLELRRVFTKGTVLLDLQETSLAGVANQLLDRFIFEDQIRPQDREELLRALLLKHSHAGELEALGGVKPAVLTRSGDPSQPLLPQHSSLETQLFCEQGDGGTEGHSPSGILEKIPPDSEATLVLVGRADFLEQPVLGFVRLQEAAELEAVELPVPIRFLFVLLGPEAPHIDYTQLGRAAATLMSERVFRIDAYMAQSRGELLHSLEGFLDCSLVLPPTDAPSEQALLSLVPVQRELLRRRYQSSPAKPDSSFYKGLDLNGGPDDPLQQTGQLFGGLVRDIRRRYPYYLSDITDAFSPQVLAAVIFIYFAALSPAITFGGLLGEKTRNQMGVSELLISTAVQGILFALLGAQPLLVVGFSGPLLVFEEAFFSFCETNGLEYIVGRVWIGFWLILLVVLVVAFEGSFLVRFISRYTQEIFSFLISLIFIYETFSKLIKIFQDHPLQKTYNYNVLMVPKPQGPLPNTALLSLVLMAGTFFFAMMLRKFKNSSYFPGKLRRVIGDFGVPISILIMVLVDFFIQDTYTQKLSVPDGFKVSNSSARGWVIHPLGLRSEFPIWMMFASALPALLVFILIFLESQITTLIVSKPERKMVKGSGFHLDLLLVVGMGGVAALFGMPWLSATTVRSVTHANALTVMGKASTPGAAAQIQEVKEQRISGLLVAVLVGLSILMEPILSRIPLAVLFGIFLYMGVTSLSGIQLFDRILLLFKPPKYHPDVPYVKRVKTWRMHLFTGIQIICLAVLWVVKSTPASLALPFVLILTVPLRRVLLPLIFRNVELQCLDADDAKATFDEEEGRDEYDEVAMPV

AE1 [2] = details: read-out: Kd of bicarbonate; flux studies in erythrocytes; cited from earlier work
AE1 [3] = details: read-out: Kd of bicarbonate; NMR studies; cited from earlier work

Row | IC50 (AE1 [1]) | AE1 inhibition in cellular bicarbonate uptake, single dose (AE1 [1]; 50 μM throughout the experiment, n = 3) | Compound | Kd (AE1 [2]) | Kd (AE1 [3])
1 | 15 µM | statistically significant AE1 inhibition | O=C(O)c1cccnc1Nc1cccc(C(F)(F)F)c1 [NIF, Niflumic acid] |  | 
2 |  |  | O=C(O)O [bicarbonate] | 2000 µM | 5400 µM

Reference: PMC11008770 (Nature structural & molecular biology, 2023)
